The values that follow come from US20250296938A1, “Compounds that Interact with the Ras Superfamily for the Treatment of Cancers, Inflammatory Diseases, Rasopathies, and Fibrotic Disease” (SHY Therapeutics, LLC, priority 2018, published 2025).

Where two headings read alike, the source gives them in different places.

Holding throughout (assay): Ras GTP binding domain inhibition assay (Cy3-GTP/Cy5-GTP competition)
For one assay, the system named is KRas G12C mutant. Details: species or system human. Conditions: 20 μM. In short, it runs like this:
(§1)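 His-tagged Ras immobilized on nickel-coated wells in Tris buffer (pH 7.4 or 7.0) with 1 mM MgCl2, 1 mM DTT, 1% DMSO. Compound (20 μM, or serial dilution for IC50) incubated 3 hours at room temperature, ± Sos (residues 556-1049) in final hour. Bound 100 nM Cy3-/Cy5-GTP read after 45 minutes and washing.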

Another assay deals with KRas Q61H mutant. Further details: species or system human. Conditions: 20 μM. In a few lines:
as §1

A further assay concerns KRas wild type. Details: species or system human. Conditions: 20 μM; for KRas wild type % inh.: without SOS (Table 7A); for KRas wild type: % inh.: without SOS. In a few lines: as §1
The next assay has as its target T1, KRas G12D mutant (Homo sapiens, UniProt P01116, G12D).
T1 construct: fused on or other part: His tag, used for capture on nickel-coated plates
The conditions noted are these: 20 μM. In a few lines:
as §1

[1] abbreviates: with SOS (Table 7A), read-out: KRas G12D mutant + SOS: % inh.
Setting [2] is: without SOS (Table 7A), read-out: KRas G12D mutant: % inh.
Setting [3] is: with SOS, read-out: KRas G-12D mutant + SOS: % inh.
The mark [4] stands for this setting: without SOS, read-out: KRas G12D mutant: % inh.

For `CO[C@H]1CC[C@@H](Nc2nc(-c3nccn3C)nc3sc(C(=O)NC(C)C)c(-c4ccccc4)c23)C1` [drawing 924], in the assay on KRas G12C mutant (with SOS (Table 7A)), the “KRas G12C mutant + SOS: % inh.” value is given as “D (76-100% inhibition)”. Further, in the assay with KRas G12C mutant (without SOS (Table 7A)), the “KRas G12C mutant: % inh.” value was “C (51-75% inhibition)”. The “KRas Q61H mutant + SOS: % inh.” value in the assay on KRas Q61H mutant (with SOS (Table 7A)) is “D (76-100% inhibition)”. Also, in the assay on KRas Q61H mutant (without SOS (Table 7A)), the “KRas Q61H mutant: % inh.” value is “D (76-100% inhibition)”. Further, the “KRas wild type + SOS: % inh.” value with KRas wild type (with SOS (Table 7A)) is “D (76-100% inhibition)”. Moreover, the “KRas wild type % inh.” value with KRas wild type is given as “D (76-100% inhibition)”. Further, the inhibition at 20 µM on KRas G12D mutant (setting [1]) and at KRas G12D mutant (setting [2]) was 76 to 100% throughout.

For the compound `COCCCNc1nc(-c2nccn2C)nc2sc(-c3ccn(C)n3)c(-c3ccc(OC)cc3)c12` [drawing 870], in the assay with KRas G12C mutant (with SOS), the “KRas G12C mutant + SOS: % inh.” value is on record as “A (1-25% inhibition)”. In addition, the “KRas G12C mutant: % inh.” value with KRas G12C mutant (without SOS) is given as 0 (0% inhibition). The “KRas Q61H mutant + SOS: % inh.” value in the assay with KRas Q61H mutant (with SOS) is recorded as “A (1-25% inhibition)”. In the assay on KRas Q61H mutant (without SOS), the “KRas Q61H mutant: % inh.” value is given as “A (1-25% inhibition)”. In the assay on KRas wild type (with SOS), the “KRas wild type + SOS: % inh.” value is 0 (0% inhibition). In the assay on KRas wild type, the “KRas wild type: % inh.” value was “A (1-25% inhibition)”. For the same compound, the inhibition at 20 µM is 1 to 25% at KRas G12D mutant (setting [3]) and 0% at KRas G12D mutant (setting [4]).

As to `Cn1ccnc1-c1nc(O)c(O)c(C(=O)NC2CCC2)n1` [drawing 825], in the assay on KRas G12C mutant (with SOS), the “KRas G12C mutant + SOS: % inh.” value is “B (26-50% inhibition)”. In addition, in the assay with KRas G12C mutant (without SOS), the “KRas G12C mutant: % inh.” value is “C (51-75% inhibition)”. In addition, the “KRas Q61H mutant + SOS: % inh.” value in the assay on KRas Q61H mutant (with SOS) is “C (51-75% inhibition)”. For the same compound, the “KRas Q61H mutant: % inh.” value in the assay with KRas Q61H mutant (without SOS) is given as “C (51-75% inhibition)”. Also, the “KRas wild type + SOS: % inh.” value with KRas wild type (with SOS) is listed as “B (26-50% inhibition)”. In addition, in the assay with KRas wild type, the “KRas wild type: % inh.” value is “C (51-75% inhibition)”. The inhibition at 20 µM fell in the range of 26 to 50% at KRas G12D mutant (setting [3]) and 51 to 75% on KRas G12D mutant (setting [4]).

`Oc1nc(-c2cn(-c3ccccc3)cn2)nc2c(-c3ccccn3)csc12` [drawing 847]: in the assay with KRas G12C mutant (with SOS), the “KRas G12C mutant + SOS: % inh.” value is reported as “A (1-25% inhibition)”. For the same compound, the “KRas G12C mutant: % inh.” value in the assay with KRas G12C mutant (without SOS) is on record as 0 (0% inhibition). Besides, the “KRas Q61H mutant + SOS: % inh.” value with KRas Q61H mutant (with SOS) is on record as “A (1-25% inhibition)”. Besides, the “KRas Q61H mutant: % inh.” value in the assay with KRas Q61H mutant (without SOS) is given as “B (26-50% inhibition)”. Further, in the assay on KRas wild type (with SOS), the “KRas wild type + SOS: % inh.” value is “A (1-25% inhibition)”. Moreover, the “KRas wild type: % inh.” value in the assay on KRas wild type is “A (1-25% inhibition)”. The inhibition at 20 µM at KRas G12D mutant (setting [3]) and at KRas G12D mutant (setting [4]) was 1 to 25% in each case.

As to `COc1cccc(-c2sc3nc(-c4nccn4C)nc(N4CCC(OC)C4)c3c2-c2cscn2)c1` (centres unmarked) [drawing 867], the “KRas G12C mutant + SOS: % inh.” value in the assay on KRas G12C mutant (with SOS) is on record as “D (76-100% inhibition)”. For the same compound, the “KRas G12C mutant: % inh.” value with KRas G12C mutant (without SOS) is given as 0 (0% inhibition). Further, the “KRas Q61H mutant + SOS: % inh.” value with KRas Q61H mutant (with SOS) was “D (76-100% inhibition)”. The “KRas Q61H mutant: % inh.” value in the assay with KRas Q61H mutant (without SOS) is given as “A (1-25% inhibition)”. Moreover, in the assay with KRas wild type (with SOS), the “KRas wild type + SOS: % inh.” value is given as “D (76-100% inhibition)”. In addition, the “KRas wild type: % inh.” value in the assay with KRas wild type is on record as “A (1-25% inhibition)”. The figures for the inhibition at 20 µM on KRas G12D mutant (setting [3]) and at KRas G12D mutant (setting [4]) were 51 to 75% and 1 to 25%, respectively.

As for `O=C(NC1CCCC1)c1nc(-c2ccccn2)nc(O)c1O` [drawing 812], in the assay with KRas G12C mutant (with SOS), the “KRas G12C mutant + SOS: % inh.” value is listed as “B (26-50% inhibition)”. Also, in the assay with KRas G12C mutant (without SOS), the “KRas G12C mutant: % inh.” value is recorded as “D (76-100% inhibition)”. Moreover, in the assay with KRas Q61H mutant (with SOS), the “KRas Q61H mutant + SOS: % inh.” value is recorded as “B (26-50% inhibition)”. Besides, the “KRas Q61H mutant: % inh.” value in the assay on KRas Q61H mutant (without SOS) is on record as “C (51-75% inhibition)”. Also, the “KRas wild type + SOS: % inh.” value in the assay on KRas wild type (with SOS) was “A (1-25% inhibition)”. Also, the “KRas wild type: % inh.” value in the assay on KRas wild type is on record as “D (76-100% inhibition)”. The results for the inhibition at 20 µM on KRas G12D mutant (setting [3]) and at KRas G12D mutant (setting [4]) were 1 to 25% and 51 to 75%, respectively.

As for `Cc1c(-c2ccn(C)n2)sc2nc(-c3nccn3C)nc(NCCCC(=O)N(C)C)c12` [drawing 917], in the assay on KRas G12C mutant (with SOS (Table 7A)), the “KRas G12C mutant + SOS: % inh.” value is reported as “C (51-75% inhibition)”. In addition, the “KRas G12C mutant: % inh.” value with KRas G12C mutant (without SOS (Table 7A)) is reported as “C (51-75% inhibition)”. Further, the “KRas Q61H mutant + SOS: % inh.” value in the assay with KRas Q61H mutant (with SOS (Table 7A)) was “C (51-75% inhibition)”. Besides, the “KRas Q61H mutant: % inh.” value with KRas Q61H mutant (without SOS (Table 7A)) was “D (76-100% inhibition)”. Further, the “KRas wild type + SOS: % inh.” value in the assay with KRas wild type (with SOS (Table 7A)) is recorded as “C (51-75% inhibition)”. For the same compound, the “KRas wild type % inh.” value in the assay with KRas wild type is “D (76-100% inhibition)”. The inhibition at 20 µM at KRas G12D mutant (setting [1]) lay in the range of 76 to 100%; on KRas G12D mutant (setting [2]), 51 to 75%.
